Data reported in paper PMC8607231, “Generation of KS-133 as a Novel Bicyclic Peptide with a Potent and Selective VIPR2 Antagonist Activity that Counteracts Cognitive Decline in a Mouse Model of Psychiatric Disorders” (Frontiers in Pharmacology, 2021).
Where a SMILES comes first, the peptide text is derived from it. Bridges are numbered along the chain shown (N, C = ends).

Columns and labels:
[1] = system: VIPR2 activation-induced phosphorylation of CREB; experiment: Western blot of pCREB in prefrontal cortex of adult mice after i.n. injection; type: in vivo; conditions: mice at 8 weeks, KS-133 20 nmol/mouse i.n. with BAY 55-9837 20 µg/mouse, 45 min after injection
Experimental: For western blot analysis, ICR neonatal mice at P12 (7–10 g body weight) were subcutaneously (s.c.) injected with KS-133 (1 nmol/g) and Ro 25-1553 (0.4 nmol/g, Peptide Institute, Inc. Osaka, Japan), a selective VIPR2 agonist ([Gourlet et al., 1997]; [Harmar et al., 2012]), and adult C57BL/6J mice at 8 weeks of age (20–30 g body weight) were intranasally (i.n.) injected with KS-133 (20 nmol/mouse) and BAY 55-9837 (20 µg/mouse, Tocris Bioscience, Bristol, United Kingdom), another selective VIPR2 agonist ([Tsutsumi et al., 2002]; [Tian et al., 2019]). The dosages of these drugs were determined in a preliminary experiment using the change in phosphorylation of cAMP-response element-binding protein (CREB) as an index. Ro 25-1553 was dissolved in phosphate-buffered saline (PBS) and BAY 55-9837 was dissolved in distilled water. KS-133 was dissolved in saline with 1% dimethyl sulfoxide (DMSO; #13445-74, Nacalai Tesque, Inc., Kyoto, Japan) for s.c. injection or saline with 5% DMSO and 5 mg/ml poly-L-arginine (#P7762, Sigma-Aldrich, St. Louis, MO, United States) for i.n. injection. […]
FIGURE 4 Effects of subcutaneous (A) and intranasal (B) administration of KS-133 on VIPR2 activation-induced phosphorylation of CREB in the prefrontal cortex of mice. Phospho-CREB (pCREB), total CREB, and β-actin levels were analyzed by western blotting. […]

[2] = system: mouse model of psychiatric disorders on the basis of early postnatal activation of VIPR2; experiment: Novel object recognition test in mouse model of early postnatal activation of VIPR2; type: in vivo; conditions: KS-133 1 nmol/g s.c. simultaneously with Ro 25-1553 0.07 nmol/g, P1-14
Experimental: For behavioral experiments, all litters were randomly divided into Ro 25-1553- and PBS-treated groups. From P1 to P14, mice were injected s.c. once daily with Ro 25-1553 at a dose of 0.07 nmol/g ([Ago et al., 2015]). Mice treated with PBS from P1 to P14 were used as the control. KS-133 or the vehicle was simultaneously injected with Ro 25-1553 or PBS. Animals were weaned at P21 and divided by gender at P28. We used male mice exclusively to minimize any potential variability due to sex-specific effects on behavioral performance. All groups were derived from at least four different litters to preclude possible differences in individual maternal behaviors as a mitigating factor in any subsequent long-lasting changes induced in the offspring. […]
The novel object recognition test was carried out in accordance with previous reports ([Takuma et al., 2014]; [Hara et al., 2016]). […] The exploration time for each object in the retention session was measured with a stopwatch. […]
FIGURE 5 Effects of early postnatal treatment with Ro 25-1553 and KS-133 on recognition memory in the novel object recognition test. […] (B) Discrimination index (%) was calculated as the difference between novel and familiar object exploration times divided by the total time spent exploring the two objects. Results are expressed as the mean ± S.E.M. of 15–20 mice per group. **p < 0.01.

## CC[C@H](C)[C@H](NC(=O)[C@H](CC(C)C)NC(=O)[C@@H]1CC(=O)NCCCC[C@@H]2NC(=O)[C@@H]3CCCN3C(=O)[C@H](CC(C)C)NC(=O)[C@H](Cc3ccc(O)cc3)NC(=O)[C@@H]3CCCN3C(=O)[C@@H]3CCCN3C(=O)[C@@H](NC(C)=O)CSSC[C@H](NC(=O)[C@H](CC(C)C)NC(=O)[C@H](Cc3ccc(O)cc3)NC2=O)C(=O)N1)C(N)=O [KS-133, Ac-c[Cys-Pro-Pro-Tyr-Leu-Pro-c(Lys-Tyr-Leu-Cys]-Asp)-Leu-Ile-NH2] (Ac-CPPYLPKYLCDLI-NH2; disulfide 1-10; lactam 7-11)
[1]
  Effect on BAY 55-9837-induced increase in phosphorylated CREB: blocked
[2]
  Effect on Ro 25-1553-induced recognition memory deficit, novel object recognition test: attenuated the decreases in the difference of time spent exploring each object and cognitive dysfunction
